Source: patent US8202889B2, “Inhibitors of bacterial IMPDH” (Vertex Pharmaceuticals Incorporated, priority 2005, dated 2012)

Legend:
E. coli IMPDH enzyme = E. coli IMPDH enzyme (Escherichia coli, UniProt P0ADG7); test: IMPDH Activity Inhibition Assay; format: biochemical; settings: for activity at 25 µM: percent remaining activity of E. coli IMPDH enzyme at 25 μM inhibitor (I) and 14 nM enzyme (E); for activity at 10 µM: percent remaining activity of E. coli IMPDH enzyme at 10 μM inhibitor (I) and 55 nM enzyme (E)
Description: IMP dehydrogenase activity was assayed according to the method reported by Hedstrom. [Hedstrom, L. et al., Biochemistry, 39, pp. 9804-9810 (2000), the disclosure of which is herein incorporated by reference]. Table 1 below lists the percent remaining activity of E. coli IMPDH enzyme (E) at either 25 μM inhibitor (I) and 14 nM enzyme (E) or 10 μM inhibitor (I) and 55 nM enzyme (E). “ND” means no data.

bacterial IMPDH = settings: Hedstrom et al., Curr. Med. Chem. 1999; cited from earlier work

Chain of E. coli IMPDH enzyme (P0ADG7 whole entry): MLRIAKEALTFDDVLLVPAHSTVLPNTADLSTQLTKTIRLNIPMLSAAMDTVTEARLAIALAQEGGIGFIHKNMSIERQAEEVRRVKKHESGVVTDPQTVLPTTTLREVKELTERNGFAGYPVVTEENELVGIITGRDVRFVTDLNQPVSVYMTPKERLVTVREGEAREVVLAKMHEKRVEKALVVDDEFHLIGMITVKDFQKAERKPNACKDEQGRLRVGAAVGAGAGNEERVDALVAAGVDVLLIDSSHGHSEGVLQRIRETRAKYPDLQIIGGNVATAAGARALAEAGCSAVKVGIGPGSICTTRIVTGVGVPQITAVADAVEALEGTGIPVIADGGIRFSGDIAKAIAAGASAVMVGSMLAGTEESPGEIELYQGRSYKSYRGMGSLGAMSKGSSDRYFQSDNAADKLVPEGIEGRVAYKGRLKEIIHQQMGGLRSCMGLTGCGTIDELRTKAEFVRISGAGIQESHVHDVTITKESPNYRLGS

Row | SMILES | activity at 10 µM (E. coli IMPDH enzyme) [%] | further results
1 | O=C(Nc1nc2ccccc2[nH]1)c1ccc2cc(C(=O)Nc3nc4ccccc4[nH]3)ccc2c1 [Compound 6] |  | activity at 25 µM (E. coli IMPDH enzyme): 90%
2 | CCOc1cccc2sc(NC(=O)c3cc4ccccc4cc3OC)nc12 [Compound 7] |  | activity at 25 µM (E. coli IMPDH enzyme): 76%
3 | Cc1cccc(NC(=O)c2ccc3cc(C(=O)Nc4cccc(C)n4)ccc3c2)n1 [Compound 8] | 87 | 
4 | COc1cc2ccccc2cc1C(=O)Nc1nc(-c2c(OC)ccc3ccccc23)cs1 [Compound 9] | 100 | 
5 | COc1ccc(-c2csc(NC(=O)c3cc4ccccc4cc3OC)n2)cc1OC [Compound 10] | 73 | 
6 | O=C(Nc1nccs1)c1ccc2cc(C(=O)Nc3nccs3)ccc2c1 [Compound 11] | 97 | 
7 | O=C(Nc1nncs1)c1ccc2cc(C(=O)Nc3nncs3)ccc2c1 [Compound 12] | 100 | 
8 | COc1c(C)c2c(c(O)c1C/C=C(\C)CCC(=O)O)C(=O)OC2 [mycophenolic acid] |  | fold less potent against bacterial IMPDH versus mammalian IMPDH (bacterial IMPDH): > 1000 fold
